Consider 5 compounds from article PMC6709534 (Journal of the American Chemical Society, 2015).

The subject of assay [1] is H. pylori. Conditions: antibiotics used in multidrug therapy and moenomycin A; cited from earlier work.
The subject of assay [2] is H. pylori. As to the kind of experiment: H. pylori growth on 5% horse blood agar. It counts as cell-based, Helicobacter pylori. The conditions noted are these: versus ∼8 ng/mL of the 10 best MTAN inhibitors.

In the case of `C=C(C/C=C(\C)CCC=C(C)C)CCC(C)(C)/C=C/CC/C(C)=C\CO[C@H](COP(=O)(O)O[C@H]1O[C@H](C(N)=O)[C@@](C)(O)[C@H](OC(N)=O)[C@H]1O[C@@H]1O[C@H](CO[C@@H]2O[C@H](CO)[C@@H](O)[C@H](O)[C@H]2O)[C@@H](O[C@@H]2O[C@H](C)[C@@H](O[C@@H]3O[C@H](C(=O)NC4=C(O)CCC4=O)[C@H](O)[C@H](O)[C@H]3O)[C@H](O)[C@H]2NC(C)=O)[C@H](O)[C@H]1NC(C)=O)C(=O)O` [moenomycin A], the “IC90 of current antibiotics against H. pylori” value (“IC90 of current antibiotics” below) in the assay on H. pylori [1] was 2000 ng/mL. As for `CC[C@H]1OC(=O)[C@H](C)[C@@H](O[C@H]2C[C@@](C)(OC)[C@@H](O)[C@H](C)O2)[C@H](C)[C@@H](O[C@@H]2O[C@H](C)C[C@H](N(C)C)[C@H]2O)[C@](C)(OC)C[C@@H](C)C(=O)[C@H](C)[C@@H](O)[C@]1(C)O` [clarithromycin], the “IC90 of current antibiotics” value in the assay with H. pylori [1] is reported as 8000 ng/mL.

As for `Cc1ncc([N+](=O)[O-])n1CCO` [Metronidazole], the “fold weaker than the 10 best MTAN inhibitors (IC90 ratio)” value with H. pylori [2] was found to be 2000 fold. The “IC90 of current antibiotics” value in the assay with H. pylori [1] was 16 000 ng/mL. For `CN(C)[C@@H]1C(O)=C(C(N)=O)C(=O)[C@@]2(O)C(O)=C3C(=O)c4c(O)cccc4[C@@](C)(O)[C@H]3C[C@@H]12` [tetracycline], the “IC90 of current antibiotics” value with H. pylori [1] was 500 ng/mL.

In the case of `C[C@H]1COc2c(N3CCN(C)CC3)c(F)cc3c(=O)c(C(=O)O)cn1c23` [levofloxacin], in the assay on H. pylori [1], the “IC90 of current antibiotics” value is 1000 ng/mL.
